In ChEMBL document CHEMBL3085746, “Discovery of novel PTP1B inhibitors via pharmacophore-oriented scaffold hopping from Ertiprotafib” (Bioorg Med Chem Lett, 2013):

Assays:
[1] = molecular target: T1, Tyrosine-protein phosphatase non-receptor type 1 (Homo sapiens) (UniProt P18031); assay: Inhibition of GST-tagged recombinant human PTP1B at 100 uM
T1 sequence (whole entry): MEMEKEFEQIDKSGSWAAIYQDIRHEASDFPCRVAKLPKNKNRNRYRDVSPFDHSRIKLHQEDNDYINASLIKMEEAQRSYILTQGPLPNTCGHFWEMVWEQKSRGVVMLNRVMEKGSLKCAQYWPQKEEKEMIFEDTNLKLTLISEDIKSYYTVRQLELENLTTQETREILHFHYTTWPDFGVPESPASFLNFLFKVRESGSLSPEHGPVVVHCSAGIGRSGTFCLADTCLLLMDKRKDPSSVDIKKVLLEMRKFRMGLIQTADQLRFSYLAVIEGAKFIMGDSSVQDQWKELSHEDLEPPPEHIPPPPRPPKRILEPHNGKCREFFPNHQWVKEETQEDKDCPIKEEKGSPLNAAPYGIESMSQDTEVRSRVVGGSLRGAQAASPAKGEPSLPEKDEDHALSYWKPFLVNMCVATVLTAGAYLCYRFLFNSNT

[2] = molecular target: T2, Tyrosine-protein phosphatase non-receptor type 1 (Homo sapiens, UniProt P18031); assay: Inhibition of GST-tagged recombinant human PTP1B
T2 sequence (P18031 whole entry): T1 sequence (whole entry)

| SMILES | inhibition [1] [%] | IC50 [2] [µM] |
| --- | --- | --- |
| O=C(N[C@H](Cc1ccccc1)C(=O)O)c1ccc(CN(c2ccccc2)c2ccccc2)cc1 | 83.8 | – |
| O=C(N[C@H](Cc1ccccc1)C(=O)O)c1ccc(Cn2c3ccccc3c3ccccc32)cc1 | 51.8 | – |
| O=C(O)CN(Cc1ccccc1)c1ccc(CN(Cc2ccc3c(c2)OCO3)c2ccc(F)cc2)cc1 | 44.3 | – |
| O=C(N[C@H](Cc1ccccc1)C(=O)O)c1ccc(CN(Cc2ccccc2)Cc2ccccc2)cc1 | 95 | 23.9 |
| O=C(O)[C@@H](Cc1ccccc1)Oc1c(Br)cc(-c2c3ccccc3c(Br)c3oc4ccccc4c23)cc1Br | 100 | 0.87 |
| O=C(O)[C@@H](Cc1ccccc1)Oc1ccc(CN(Cc2ccc3c(c2)OCO3)c2ccc(F)cc2)cc1 | 112 | 10.4 |
| COc1ccc(N(Cc2ccc(O[C@H](Cc3ccccc3)C(=O)O)cc2)C(=O)c2ccc(C(=O)O)cc2)cc1 | < 40 | – |
| O=C(O)CC(CC(=O)c1ccccc1)c1ccc(OC(c2ccccc2)c2ccccc2)cc1 (stereo not given) | 61 | – |
| O=C(O)CC(CC(=O)c1ccccc1)c1ccc(CN(Cc2ccc3c(c2)OCO3)c2ccc(F)cc2)cc1 (stereo not given) | 59.1 | – |
| COc1ccc(N(Cc2ccc3c(c2)OCO3)C(=O)c2ccc(C(CC(=O)O)CC(=O)c3ccccc3)cc2)cc1 (stereo not given) | < 40 | – |
| O=C(O)[C@@H](Cc1ccccc1)Oc1ccc(-n2c3ccccc3c3ccccc32)cc1 | 98.4 | 40.3 |
| O=C(O)CN(C(=O)Cc1ccccc1)c1ccc(CN(Cc2ccc3c(c2)OCO3)c2ccc(F)cc2)cc1 | 96.4 | 1.3 |
| O=C(N[C@H](Cc1ccccc1)C(=O)O)c1ccc(CN(Cc2ccccc2)c2ccccc2)cc1 | 113 | 3.9 |
| COc1ccc(N(Cc2ccc3c(c2)OCO3)C(=O)c2ccc(CN(CC(=O)O)Cc3ccccc3)cc2)cc1 | < 40 | – |
| COc1ccc(N(Cc2ccc(C(=O)N[C@H](Cc3ccccc3)C(=O)O)cc2)Cc2ccc3c(c2)OCO3)cc1 | 100 | – |
| O=C(N[C@H](Cc1ccccc1)C(=O)O)c1ccc(C(=O)N(Cc2ccccc2)Cc2ccccc2)cc1 | < 40 | – |
| O=C(O)CC(CC(=O)c1ccccc1)c1ccc(-n2c3ccccc3c3ccccc32)cc1 (stereo not given) | 106 | 10.2 |
| COc1ccc(N(Cc2ccc(O[C@H](Cc3ccccc3)C(=O)O)cc2)C(=O)c2ccc3c(c2)OCO3)cc1 | < 40 | – |
| O=C(N[C@H](Cc1ccccc1)C(=O)O)c1ccc(Cn2c(Cc3ccccc3)nc3ccccc32)cc1 | 53.4 | – |
| O=C(O)[C@@H](Cc1ccccc1)Oc1ccc(C(=O)N(Cc2ccc3c(c2)OCO3)c2ccc(F)cc2)cc1 | < 40 | – |
| O=C(O)CN(Cc1ccccc1)Cc1ccc(-n2c3ccccc3c3ccccc32)cc1 | 67.3 | – |
| O=C(O)CC(CC(=O)c1ccccc1)c1ccc(Cn2c3ccccc3c3ccccc32)cc1 (stereo not given) | 98 | 10 |
